In article PMC11141402, “Cyclic β^2,3-amino acids improve the serum stability of macrocyclic peptide inhibitors targeting the SARS-CoV-2 main protease” (Bulletin of the Chemical Society of Japan, 2024):
*1 amine or outer side, *2 acyl side, *3 side chain or, on linkers, in order; H or OH if unused. Where a SMILES comes first, the peptide text is derived from it. Bridges are numbered along the chain shown (N, C = ends). [ ]: non-standard residue; d: D form. ACHC(1S,2S) = O=C([C@H]1CCCC[C@@H]1N[*:1])[*:2]; X1 = O=C([C@@H]1CCC[C@@H]1N[*:1])[*:2]

Experiments:
[1] = target: T1, SARS-CoV-2 M^pro (Severe acute respiratory syndrome coronavirus 2, UniProt P0DTD1); experiment: biochemical; type: binding; settings: for kon: read-out: ka (kinetic association)
T1 construct: also known as 3-chymotrypsin-like cysteine protease (3CL^pro) and nonstructural protein 5 (nsp5)

[2] = target: T1, SARS-CoV-2 M^pro; experiment: biochemical
[3] = Serum stability assay in human serum, LC/MS; type: in vitro ADME; settings: 37 °C, peptide 10 μM, up to 168 h, mean ± s.d. (n = 3), read-out: t1/2 in serum (converted)
Description: A synthetic macrocyclic peptide (10 μM) and a serum-resistant internal standard peptide consisting only of D-amino acids (NH2-PEG5-wstndwstnd-PEG5-CONH2, 5 μM) were mixed and incubated in human serum (Cosmo Bio, 12181201) at 37 °C for up to 168 h.[16] At each time point, 4 μL of the mixture was removed and quenched by adding 12 μL of methanol, followed by incubation on ice for 15 min. Following centrifugation (15,000 × g, 25 °C, 10 min), 10 μL of the supernatant was mixed with 40 μL of 1% (v/v) TFA in water. Following centrifugation (15,000 × g, 25 °C, 5 min), the supernatant was analyzed using LC/MS employing a reverse-phase column (ACQUITY UPLC BEH C18, 1.7 μm, 2.1 × 150 mm; Waters) and a Xevo G2-XS QTof system (Waters) with a linear gradient from 1% B to 61% B. Buffer A: water with 0.1% (v/v) formic acid; buffer B: acetonitrile with 0.1% (v/v) formic acid. The percentages of remaining peptides were determined by using the peak area integration of the chromatograms. The obtained LC/MS data were analyzed using a MassLynx 4.1 (Waters).

| Structure (SMILES) | Kd [1] | kon [1] | IC50 [2] | half-life at 10 μM [3] |
| --- | --- | --- | --- | --- |
| CC(C)C[C@@H]1NC(=O)[C@H](CC(N)=O)NC(=O)[C@H](Cc2c[nH]cn2)NC(=O)[C@H](Cc2ccccc2)NC(=O)[C@@H]2CCC[C@@H]2NC(=O)[C@H](Cc2c[nH]cn2)NC(=O)[C@H](Cc2ccccc2)NC(=O)[C@@H](Cc2ccc(O)cc2)NC(=O)CSC[C@H](C(N)=O)NC(=O)[C@H](Cc2c[nH]cn2)NC(=O)[C@H](CC(C)C)NC(=O)[C@H](CCCNC(=N)N)NC(=O)[C@H](Cc2ccccc2)NC1=O [BM5, ^AcyFHβ^1FHNLFRLHc-NH2] ({CH2CO}-[dY]FH[X1]FHNLFRLH[dC]-NH2; thioether N-13) | 0.022 µM | 36000 M⁻¹ s⁻¹ | 0.36 µM |  |
| CC(C)C[C@@H]1NC(=O)[C@H](C)NC(=O)[C@H](CC(N)=O)NC(=O)[C@H](CC(=O)O)NC(=O)[C@H](Cc2ccc(O)cc2)NC(=O)[C@H](CCCNC(=N)N)NC(=O)[C@H](Cc2c[nH]cn2)NC(=O)[C@H](Cc2ccccc2)NC(=O)[C@@H](Cc2ccc(O)cc2)NC(=O)CSC[C@H](C(N)=O)NC(=O)[C@H](Cc2ccc(O)cc2)NC(=O)[C@H](C(C)C)NC1=O [BM3A, ^AcyFHRYDNA LVYc-NH2] ({CH2CO}-[dY]FHRYDNALVY[dC]-NH2; thioether N-12) | > 10 µM |  | > 25 µM | 4.6 h |
| CC(C)C[C@@H]1NC(=O)[C@H]2CCCC[C@@H]2NC(=O)[C@H](CC(N)=O)NC(=O)[C@H](CC(=O)O)NC(=O)[C@H](Cc2ccc(O)cc2)NC(=O)[C@H](CCCNC(=N)N)NC(=O)[C@H](Cc2c[nH]cn2)NC(=O)[C@H](Cc2ccccc2)NC(=O)[C@@H](Cc2ccc(O)cc2)NC(=O)CSC[C@H](C(N)=O)NC(=O)[C@H](Cc2ccc(O)cc2)NC(=O)[C@H](C(C)C)NC1=O [BM3, ^AcyFHRYDNβ^2LVYc-NH2] ({CH2CO}-[dY]FHRYDN[ACHC(1S,2S)]LVY[dC]-NH2; thioether N-12) | 0.0077 µM | 810000 M⁻¹ s⁻¹ | 0.04 µM | 48 h |
| CC(C)C[C@@H]1NC(=O)[C@H](CO)NC(=O)[C@H](CCCNC(=N)N)NC(=O)[C@H](Cc2ccccc2)NC(=O)[C@@H]2CCC[C@@H]2NC(=O)[C@H](Cc2c[nH]cn2)NC(=O)[C@H](Cc2ccccc2)NC(=O)[C@@H](Cc2ccc(O)cc2)NC(=O)CSC[C@H](C(N)=O)NC(=O)CNC(=O)[C@H](Cc2ccccc2)NC(=O)[C@H](C(C)C)NC(=O)[C@H](Cc2ccccc2)NC1=O [BM6, ^AcyFHβ^1FRSLFVFGc-NH2] ({CH2CO}-[dY]FH[X1]FRSLFVFG[dC]-NH2; thioether N-13) | 0.0029 µM | 260000 M⁻¹ s⁻¹ | 2.15 µM |  |
| CC(C)C[C@@H]1NC(=O)[C@H](Cc2c[nH]cn2)NC(=O)[C@H](Cc2ccc(O)cc2)NC(=O)[C@H](C)NC(=O)[C@H](CC(=O)O)NC(=O)[C@H](Cc2ccccc2)NC(=O)[C@@H](Cc2ccc(O)cc2)NC(=O)CSC[C@H](C(N)=O)NC(=O)[C@H](CCCNC(=N)N)NC(=O)[C@H](C)NC(=O)[C@H](CC(N)=O)NC1=O [BM7A, ^AcyFDA YHLNA Rc-NH2] ({CH2CO}-[dY]FDAYHLNAR[dC]-NH2; thioether N-11) | > 10 µM |  | > 25 µM | 4.2 h |
| CC(C)C[C@@H]1NC(=O)[C@@H](Cc2ccc(O)cc2)NC(=O)CSC[C@H](C(N)=O)NC(=O)[C@H](Cc2ccccc2)NC(=O)[C@H](Cc2c[nH]cn2)NC(=O)[C@@H]2CCCN2C(=O)[C@H](CC(N)=O)NC(=O)[C@@H]2CCC[C@@H]2NC(=O)[C@H]([C@@H](C)O)NC(=O)[C@H](Cc2c[nH]cn2)NC1=O [BM4, ^AcyLHTβ^1NPHFc-NH2] ({CH2CO}-[dY]LHT[X1]NPHF[dC]-NH2; thioether N-10) | 1.2 µM | 1700 M⁻¹ s⁻¹ | > 8 µM |  |
| CC(C)C[C@@H]1NC(=O)[C@H](Cc2c[nH]cn2)NC(=O)[C@H](Cc2ccc(O)cc2)NC(=O)[C@@H]2CCC[C@@H]2NC(=O)[C@H](CC(=O)O)NC(=O)[C@H](Cc2ccccc2)NC(=O)[C@@H](Cc2ccc(O)cc2)NC(=O)CSC[C@H](C(N)=O)NC(=O)[C@H](CCCNC(=N)N)NC(=O)[C@@H]2CCC[C@@H]2NC(=O)[C@H](CC(N)=O)NC1=O [BM7, ^AcyFDβ^1YHLNβ^1Rc-NH2] ({CH2CO}-[dY]FD[X1]YHLN[X1]R[dC]-NH2; thioether N-11) | 0.0096 µM | 170000 M⁻¹ s⁻¹ | 0.02 µM | > 168 h |
